Read-outs that look alike come from different tables or passages of the source. Marks after values point to notes of the source that are not given here.
What was measured:
[1] = system: engraftment arrhythmia (EA); settings: for Result: HR effect / Result: response on EA burden / Result: cardioversion: Table 1, swine; for Effect: HR effect / Effect: response on EA burden / Effect: cardioversion: Table 2, Phase 1; for effect on heart rate (agent alone) / effect on rhythm: cardioversion / sinus rhythm / arrhythmia burden (agent alone): running text and figure legend, pigs in EA
Experimental: A number of anti-arrhythmic therapies were tested to determine their efficacy in treating and preventing engraftment arrhythmias.
The objective of this study was to identify a pharmacological regimen to attenuate arrhythmias following cardiac remuscularization therapy. This study was designed in two phases: the first, to observe the natural history of EA and screen various antiarrhythmic agents for efficacy and the second, test for efficacy (FIG. 16). All subjects were 30-40 kg castrated male Yucatan minipigs between 6-13 months of age (S&S Farms). In Phase 1, nine subjects underwent cardiac remuscularization therapy with 500×10^6 hESC-CM delivered by direct surgical transepicardial injections or later, by percutaneous transendocardial injections. The first four subjects (one non-infarcted and three infarcted) were followed to learn the natural history of EA and establish clinical endpoints and parameters for the Phase 2 drug trial. The subsequent five subjects underwent systematic dosing with antiarrhythmic agents with continuous electrocardiography (ECG) monitoring to determine effect on rhythm and rate (Table 2).
In addition, the funny current/HCN4 channel antagonist, ivabradine, was tested (Tables 1 and 2). This series was not meant to be definitive but rather to rapidly identify candidate agents. Animals were brought into the laboratory while in EA, anesthetized, and the effects of short-term intravenous infusion of anti-arrhythmic agents were studied.
Subjects were administered multiple trials antiarrhythmics and observed for acute response by continuous ECG monitoring. Intravenous agents were delivered as a bolus dose over 2 minutes. Oral agents were administrated by direct observation in a minimum of apples, apple sauce or pumpkin puree with daily feeding and dosed daily for dose escalation. A washout period of at least three days was provided between agents. Amiodarone was administered as the last agent for testing given concern for prolonged half-life and elimination kinetics. All agents were tested in at least two subjects.

[2] = system: engraftment arrhythmia (EA); test: Antiarrhythmic trial in non-human primate engraftment model; type: in vivo; settings: Table 1, concentration not given
[3] = Amiodarone drug monitoring by liquid chromatography-mass spectrometry after discontinuation of oral therapy; type: in vivo, pigs; settings: within 1 week of discontinuation of chronic oral amiodarone; pig
Experimental: Amiodarone levels were measured in plasma by a liquid chromatography-mass spectrometry assay. Chronic oral amiodarone in six pigs was discontinued after achieving electrical maturation and stabilization of engraftment arrythmia. Serum concentrations of amiodarone were assayed weekly, including 3-4 weeks after discontinuation.
A novel liquid chromatography—mass spectrometry assay was established for amiodarone to monitor steady state serum levels in the porcine model and guide oral dosing to ensure efficacy and avoid dose-related toxicity. A target serum level of 1.5-4.0 μg/ml was extrapolated from prior human pharmacokinetic studies (16,17). Elimination kinetics after discontinuation of oral amiodarone therapy were also studied by obtaining weekly trough concentrations in 6 pigs (subjects 6, 7, 8, 13, 14, 16) (FIG. 18).

Row | SMILES | Result: HR effect [1] | Effect: HR effect ([1]; pig) | Effect: response on EA burden ([1]; pig) | effect in the antiarrhythmic screen (heart rate or arrhythmia burden) [1] | Result: response on EA burden [1] | other results
1 | COc1cc2c(cc1OC)CC(=O)N(CCCN(C)C[C@H]1Cc3cc(OC)c(OC)cc31)CC2 [Ivabradine] | Robust dose-dependent HR | Robust dose-dependent HR effect (PO | only)**, no response on EA burden | – | – | Effect: adverse events (footnotes * and **) ([1]; pig, in vivo): **Severe bradycardia; effect on heart rate (agent alone) ([1]; listed as ivabradine): robust dose-dependent effects on heart rate; effect on rhythm: cardioversion / sinus rhythm / arrhythmia burden (agent alone) ([1]; listed as ivabradine): did not restore sinus rhythm
2 | COCCc1ccc(OCC(O)CNC(C)C)cc1 (centres unmarked) [Metoprolol] | Moderate HR effect (IV only) | Moderate HR effect (IV only) | no | no significant effect | no | –
3 | O=C1CN(/N=C/c2ccc(-c3ccc([N+](=O)[O-])cc3)o2)C(O)=N1 [Dantrolene] | No response on HR or EA burden | – | – | – | No response on HR or EA burden | –
4 | CCCNCC(O)COc1ccccc1C(=O)CCc1ccccc1 (centres unmarked) [Propafenone] | – | – | – | – | – | Effect: adverse events (footnotes * and **) ([1]; pig, in vivo): *Severe nausea/emesis observed at therapeutic doses, limiting clinical utility; Result: adverse events (* remarks) ([1]; pig, in vivo): * Dose limited emesis
5 | COc1ccc(CCN(C)CCCC(C#N)(c2ccc(OC)c(OC)c2)C(C)C)cc1OC (centres unmarked) [Verapamil] | – | – | – | – | – | Result [2]: Sudden cardiac death
6 | CC(C)NCC(O)c1ccc(NS(C)(=O)=O)cc1 (centres unmarked) [Sotalol] | No response on HR or EA burden | No response on HR or EA burden | No response on HR or EA burden | no significant effect | No response on HR or EA burden | –
7 | O=C(NCC1CCCCN1)c1cc(OCC(F)(F)F)ccc1OCC(F)(F)F (centres unmarked) [Flecainide] | No response on HR or EA burden | No response on HR or EA burden | No response on HR or EA burden | no significant effect | No response on HR or EA burden | –
8 | CCN(CC)CC(=O)Nc1c(C)cccc1C [Lidocaine] | Modest HR effect | Modest HR effect | – | no significant effect | – | Result: cardioversion [1]: rare; Effect: cardioversion ([1]; pig): rare
9 | CCCCc1oc2ccccc2c1C(=O)c1cc(I)c(OCCN(CC)CC)c(I)c1 [Amiodarone] | Modest HR effect | Modest HR effect | – | – | – | Result: cardioversion [1]: frequent; Effect: cardioversion ([1]; pig): frequent; effect on heart rate (agent alone) [1]: moderate effect on reducing heart rate; effect on rhythm: cardioversion / sinus rhythm / arrhythmia burden (agent alone) [1]: effective as an intravenous bolus to cardiovert; Average serum amiodarone [3]: 0.42 ± 0.12 µg/mL
